Patent publication US9850227B2 (YUHAN CORPORATION, priority 2011, dated 2017)
Where a name gives a salt, the structure may show the parent alone.

Target: T1, human 5-HT4(a) (Homo sapiens, UniProt Q13639)
T1 construct: host or cells: GeneBIAzer HTR4-CRE-bla CHO-K1 cells
Test: Evaluation of agonistic activity in CHO-K1 cells expressing human 5-HT4(a) (GeneBIAzer HTR4-CRE-bla CHO-K1 cells, beta-lactamase fluorescence ratio, EC50 from 8 concentrations)
Assay type: cell-based
Description: Evaluation of Agonistic Activity in CHO-K1 Cells Expressing Human 5-HT4(a)
As CHO-K1 cells stably expressing human 5-HT4(a), we used the GeneBIAzer HTR4-CRE-bla CHO-K1 cells (Invitrogen Corp.). The cells were cultured, under the condition of 37° C. and 5% CO2, in a DMEM supplemented with 10% fetal bovine serum (FBS), 25 mM HEPES (pH7.4), 600 μg/ml hygromycin B, 0.1 mM non-essential amino acids, 100 unit/ml penicillin and 100 μg/ml streptomycin. Subcultures were performed three times per one week, each being at less than 80% confluence. At the previous day before treating test compounds, the cells were collected using 0.5% trypsin/EDTA and then diluted with a DMEM supplemented with 1% FBS, 25 mM HEPES, and 0.1 mM non-essential amino acids into 3.125×10^5 cells/ml. 32 μl of the diluted cells were added into 384-well plate (10^4 cells per well) and then incubated overnight. After the overnight culture, 8 μl of the medium having 1% of DMSO was added into the cell-free control well and the non-stimulating control well, respectively. 8 μl of the respective test compound dilutions (which had been prepared by diluting by 100-times with the medium as mentioned in the above) having 1% of DMSO were added to the respective remaining wells. After being cultured in the incubator for 5 hours, the wells of the 384-plate were treated with the substrate solution (8 μl per well) prepared according to the vendor's instruction (i.e., Invitrogen's instruction), and then incubated in the dark room for additional two hours. Agonistic activities on 5-HT4 receptor were evaluated, on the basis of fluorescence values of the cleavage-products by beta-lactamase. After exciting to 410 nm of wavelength using a fluorescence detector (Genios Pro), we measured the fluorescence values at two emission wavelengths (first wavelength: 465 nm, second wavelength: 535 nm). Data were analyzed on the basis of the ratio of fluorescence intensities of each well at the respective wavelengths. Each EC50 value was calculated by non-linear regression analysis using the “GraphPad Prism” program, based on the activities according to 8-different concentrations of the test compounds.

T1 sequence (Q13639 1-387 isoform Q13639-2): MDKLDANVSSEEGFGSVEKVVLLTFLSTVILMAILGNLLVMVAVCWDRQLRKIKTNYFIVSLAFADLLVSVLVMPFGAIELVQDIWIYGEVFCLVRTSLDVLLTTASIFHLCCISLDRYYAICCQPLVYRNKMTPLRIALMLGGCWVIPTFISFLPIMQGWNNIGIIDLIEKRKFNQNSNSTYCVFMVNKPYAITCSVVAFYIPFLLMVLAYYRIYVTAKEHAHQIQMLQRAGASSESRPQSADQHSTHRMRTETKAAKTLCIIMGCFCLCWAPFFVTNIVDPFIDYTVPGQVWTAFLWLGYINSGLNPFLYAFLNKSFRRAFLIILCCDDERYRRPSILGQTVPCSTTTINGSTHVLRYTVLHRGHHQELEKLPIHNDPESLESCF

Compound | EC50 [nM]
CCCc1cc(N2CCNC[C@H]2C)nc(Nc2ccc(C)c(C#N)c2)n1 [Example 126, (R)-2-methyl-5-[4-(2-methylpiperazin-1-yl)-6-propylpyrimidin-2-ylamino]benzonitrile] | 0.013
CCCc1cc(N2CCNC[C@H]2C)nc(Nc2ccc(N)c(C#N)c2)n1 [Example 127, (R)-2-amino-5-[4-(2-methylpiperazin-1-yl)-6-propylpyrimidin-2-ylamino]benzonitrile] | 0.053
CCCc1cc(N2CCNC[C@H]2C)nc(Nc2ccc(N)c([N+](=O)[O-])c2)n1 [Example 128, (R)-N^1-[4-(2-methylpiperazin-1-yl)-6-propylpyrimidin-2-yl]-3-nitrobenzene-1,4-diamine] | 0.0049
CCCc1cc(N2CCNC[C@H]2C)nc(Nc2cc(N)cc(C#N)c2)n1 [Example 129, (R)-3-amino-5-[4-(2-methylpiperazin-1-yl)-6-propylpyrimidin-2-ylamino]benzonitrile] | 0.0041
CCCc1cc(N2CCCCC2CCO)nc(Nc2cccc(C#N)c2)n1 (stereo not shown) [Example 131, 3-{4-[2-(2-hydroxyethyl)piperidin-1-yl]-6-propylpyrimidin-2-ylamino}benzonitrile] | 0.12
CCCc1cc(N2CCCCC2CCO)nc(Nc2ccc3nc(C(F)(F)F)[nH]c3c2)n1 (stereo not shown) [Example 136, 2-(1-{6-propyl-2-[2-(trifluoromethyl)-1H-benzo[d]imidazol-6-ylamino]pyrimidin-4-yl}piperidin-2-yl)ethanol] | 0.35
CCCc1cc(N2CCCCC2CCO)nc(Nc2cccc(OC)c2)n1 (stereo not shown) [Example 138, 2-{1-[2-(3-methoxyphenylamino)-6-propylpyrimidin-4-yl]piperidin-2-yl}ethanol] | 0.46
CCCc1cc(N2CCCCC2CCO)nc(Nc2ccc(C)c(Cl)c2)n1 (stereo not shown) [Example 140, 2-{1-[2-(3-chloro-4-methylphenylamino}-6-propylpyrimidin-4-yl]piperidin-2-yl}ethanol] | 0.28
CCCc1cc(N2CCCCC2CCO)nc(Nc2cccc([N+](=O)[O-])c2)n1 (stereo not shown) [Example 141, 2-{1-[2-(3-nitrophenylamino)-6-propylpyrimidin-4-yl]piperidin-2-yl}ethanol] | 0.15
CCCc1cc(N2CCCCC2CCO)nc(Nc2ccc(F)c([N+](=O)[O-])c2)n1 (stereo not shown) [Example 142, 2-{1-[2-(4-fluoro-3-nitrophenylamino)-6-propylpyrimidin-4-yl]piperidin-2-yl}ethanol] | 0.3
CCCc1cc(N2CCCCC2CCO)nc(Nc2ccc3c(C)cc(=O)oc3c2)n1 (stereo not shown) [Example 146, 7-{4-[2-(2-hydroxyethyl)piperidin-1-yl]-6-propylpyrimidin-2-ylamino}-4-methyl-2H-chromen-2-one] | 0.27
CCCc1cc(N2CCCCC2CCO)nc(Nc2cccc(C(F)(F)F)c2)n1 (stereo not shown) [Example 147, 2-{1-[6-propyl-2-(3-trifluoromethylphenylamino)pyrimidin-4-yl]piperidin-2-yl}ethanol] | 0.31
CCCc1cc(N2CCC[C@H](N)C2)nc(Nc2ccc(C)c(C#N)c2)n1 [Example 150, (S)-5-[4-(3-aminopiperidin-1-yl)-6-propylpyrimidin-2-ylamino]-2-methylbenzonitrile dihydrochloride] | 0.07
CCCc1cc(N2CCC[C@H](N)C2)nc(Nc2cccc([N+](=O)[O-])c2)n1 [Example 151, (S)-4-(3-aminopiperidin-1-yl)-N-(3-nitrophenyl)-6-propylpyrimidin-2-amine dihydrochloride] | 0.361
CCCc1cc(N2CCC[C@@H](N)C2)nc(Nc2ccc(C)c(C#N)c2)n1 [Example 153, (R)-5-[4-(3-aminopiperidin-1-yl)-6-propylpyrimidin-2-ylamino]-2-methylbenzonitrile] | 0.02
CCCCN[C@H]1CCCN(c2cc(CCC)nc(Nc3ccc(C)c(C#N)c3)n2)C1 [Example 154, (S)-5-{4-[3-(butylamino)piperidin-1-yl]-6-propylpyrimidin-2-ylamino}-2-methylbenzonitrile] | 0.041
CCCCCN[C@H]1CCCN(c2cc(CCC)nc(Nc3ccc(C)c(C#N)c3)n2)C1 [Example 155, (S)-5-{4-[3-(pentylamino)piperidin-1-yl]-6-propylpyrimidin-2-ylamino}-2-methylbenzonitrile] | 0.093

Compound | EC50 [nM]
CCCc1cc(N2CCC[C@H](NCC(C)C)C2)nc(Nc2ccc(C)c(C#N)c2)n1 [Example 156, (S)-5-{4-[3-(isobutylamino)piperidin-1-yl]-6-propylpyrimidin-2-ylamino}-2-methylbenzonitrile] | 0.066
CCCc1cc(N2CCC[C@H](NCCC(C)C)C2)nc(Nc2ccc(C)c(C#N)c2)n1 [Example 157, (S)-5-{4-[3-(isopentylamino)piperidin-1-yl]-6-propylpyrimidin-2-ylamino}-2-methylbenzonitrile] | 0.088
CCCc1cc(N2CCC[C@H](NCC(C)(C)C)C2)nc(Nc2ccc(C)c(C#N)c2)n1 [Example 158, (S)-2-methyl-5-{4-[3-(neopentylamino)piperidin-1-yl]-6-propylpyrimidin-2-ylamino}benzonitrile] | 0.054
CCCc1cc(N2CCC[C@H](NCc3ccc[nH]3)C2)nc(Nc2ccc(C)c(C#N)c2)n1 [Example 159, (S)-5-(4-{3-[(1H-pyrrol-2-yl)methylamino]piperidin-1-yl}-6-propylpyrimidin-2-ylamino)-2-methylbenzonitrile] | 0.046
CCCc1cc(N2CCC[C@H](NCc3cccs3)C2)nc(Nc2ccc(C)c(C#N)c2)n1 [Example 160, (S)-2-methyl-5-(4-propyl-6-{3-[(thiophen-2-ylmethyl)amino]piperidin-1-yl}pyrimidin-2-ylamino)benzonitrile] | 0.125
CCCc1cc(N2CCC[C@H](NCc3cc(C)c(C)o3)C2)nc(Nc2ccc(C)c(C#N)c2)n1 [Example 161, (S)-5-(4-{3-[(4,5-dimethylfuran-2-ylmethyl)amino]piperidin-1-yl}-6-propylpyrimidin-2-ylamino)-2-methylbenzonitrile] | 0.148
CCCc1cc(N2CCC[C@H](NCCCSC)C2)nc(Nc2ccc(C)c(C#N)c2)n1 [Example 162, (S)-2-methyl-5-{4-[3-(3-methylthiopropylamino)piperidin-1-yl]-6-propylpyrimidin-2-ylamino}benzonitrile] | 0.043
CCCc1cc(N2CCC[C@H](NCC3CC3)C2)nc(Nc2ccc(C)c(C#N)c2)n1 [Example 163, (S)-5-{4-[3-(cyclopropylmethylamino)piperidin-1-yl]-6-propylpyrimidin-2-ylamino}-2-methylbenzonitrile] | 0.088
CCCc1cc(N2CCC[C@H](NCc3ccc(O)cc3)C2)nc(Nc2ccc(C)c(C#N)c2)n1 [Example 164, (S)-5-{4-[3-(4-hydroxybenzylamino)piperidin-1-yl]-6-propylpyrimidin-2-ylamino}-2-methylbenzonitrile] | 0.075
CCCc1cc(N2CCC[C@H](N(CC)CC)C2)nc(Nc2ccc(C)c(C#N)c2)n1 [Example 165, (S)-5-[4-(3-diethylaminopiperidin-1-yl)-6-propylpyrimidin-2-ylamino]-2-methylbenzonitrile] | 0.188
CCCc1cc(N2CCCCC2CCO)nc(Nc2ccc(C)c([N+](=O)[O-])c2)n1 (stereo not shown) [Example 174, 2-{1-[2-(4-methyl-3-nitrophenylamino)-6-propylpyrimidin-4-yl]piperidin-2-yl}ethanol] | 0.039
CCCc1cc(N2CCCCC2CCO)nc(Nc2ccc(N)c(C(F)(F)F)c2)n1 (stereo not shown) [Example 175, 2-{1-[2-(4-amino-3-trifluoromethylphenylamino)-6-propylpyrimidin-4-yl]piperidin-2-yl}ethanol] | 0.035
CCCc1cc(N2CCCCC2CCO)nc(Nc2ccc(N)c([N+](=O)[O-])c2)n1 (stereo not shown) [Example 176, 2-{1-[2-(4-amino-3-nitrophenylamino)-6-propylpyrimidin-4-yl]piperidin-2-yl}ethanol] | 0.018
CCCc1cc(N2CCCCC2CCO)nc(Nc2ccc(C)c(C#N)c2)n1 (stereo not shown) [Example 177, 5-{4-[2-(2-hydroxyethyl)piperidin-1-yl]-6-propylpyrimidin-2-ylamino}-2-methylbenzonitrile] | 0.049
CCCc1cc(N2CCCCC2CCO)nc(Nc2ccc(F)c(C#N)c2)n1 (stereo not shown) [Example 178, 2-fluoro-5-{4-[2-(2-hydroxyethyl)piperidin-1-yl]-6-propylpyrimidin-2-ylamino}benzonitrile] | 0.082
CCCc1cc(N2CCCCC2CCO)nc(Nc2ccc(N)c(C#N)c2)n1 (stereo not shown) [Example 179, 2-amino-5-{4-[2-(2-hydroxyethyl)piperidin-1-yl]-6-propylpyrimidin-2-ylamino}benzonitrile] | 0.027
CCCc1cc(N2CCCCC2CCO)nc(Nc2ccc(C)c(N)c2)n1 (stereo not shown) [Example 180, 2-{1-[2-(3-amino-4-methylphenylamino)-6-propylpyrimidin-4-yl]piperidin-2-yl}ethanol] | 0.153
